# Laboratory results: patent publication US11518805B2, “Binding inhibitor between TCTP dimer type IgE-dependent histamine releasing factor and receptor thereof, and use thereof” (EWHA UNIVERSITY—INDUSTRY COLLABORATION FOUNDATION, priority 2014, dated 2022)
# Entries after “also recorded” stand apart in the source; their conditions may differ.
# T1: Del-N11dTCTP (Rattus norvegicus, UniProt P63029)
# T1 construct: made in house
# T1 sequence (P63029 11-172 limits assumed): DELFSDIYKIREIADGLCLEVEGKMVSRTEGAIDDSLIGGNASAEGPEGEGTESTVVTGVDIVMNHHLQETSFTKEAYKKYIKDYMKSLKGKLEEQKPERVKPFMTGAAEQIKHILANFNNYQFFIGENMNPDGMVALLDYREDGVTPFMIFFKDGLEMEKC
# Experiments:
# [1] = test system: HRF; test: HRF binding affinity of heptamer peptides by ELISA (alanine scan of p2); conditions: p2 and its substituted heptamers m1-m7
# Source text: In order to confirm the residues involved in the HRF binding affinity of the heptamer peptide of the present invention, the amino acid sequence of p2 was substituted with alanine (A), and only m5 was substituted with lysine (K). As a result, the following sequences were established: […]
# [2] = target: T1, Del-N11dTCTP; test: Inhibition of Del-N11dTCTP-induced IL-8 secretion by domain peptides in BEAS-2B cells; assay type: cell-based; conditions: Del-N11dTCTP 70 nM, peptide molar ratios 0~1, 24 hours, ELISA
# Protocol: To investigate inhibitory effect of FL domain, Helix 2 domain, and Helix 3 domain on Del-N11dTCTP, the inventors synthesized FL domain (Ac-[…]-NH2) (SEQ. ID. NO: 1), Helix 2 domain (Ac-[…]-NH2) (SEQ. ID. NO: 11), and Helix 3 domain (Ac-[…]-NH2) (SEQ. ID. NO: 22) by using the synthetic peptides prepared with NH2-terminal acetylation and COOH-terminal amidation, followed by purification.
# Particularly, BEAS-2B cells were treated with Del-N11dTCTP (70 nM) by the same manner as described in Experimental Example 1. At this time, the synthesized FL domain, Helix 2 domain, and Helix 3 domain were treated to the cells at different molar ratios (0˜1), followed by reaction for 30 minutes. Then, Del-N11dTCTP was added thereto. 24 hours later, the supernatant was obtained and the released IL-8 was quantified by ELISA.
# [3] = test system: HRF; test: Phage clone ELISA for binding to immobilized HRF; conditions: wells coated with HRF or BSA (control)
# Protocol: Particularly, HRF was dissolved in a coating buffer (0.1 M NaHCO 3, pH 8.6) at the concentration of 20 μg/ml, which was loaded in a polystyrene microtiter plate (50 ? /well), followed by coating at 4° C. for overnight and blocking non-specific binding with BSA. The plate was washed with 0.1% Tween/TBS (TBST) 6 times. […] The plate stood at room temperature for 1 hour. TBST was added thereto, and the plate stood for 5 minutes, followed by washing. The washing was performed once after one round of panning, 5 times after 2 and 3 rounds of panning, and 10 times after 4 rounds of panning. 50 ? of glycine/HCl buffer (pH 2.2) was added thereto, which stood for 5 minutes. Then, phages were eluted, and then neutralization was induced with 8 ? of 1 M Tris-HCl (pH 9.1). The eluted phage solution was added to 20 ? of ER2537 culture medium (OD600=0.5˜1), followed by culture in a 37° C. shaking incubator (rpm=200) for 2 hours. 100 ? of SB medium was added thereto, followed by culture for overnight with shaking (250 rpm). The culture solution was centrifuged at 10,000 rpm (4° C.) for 15 minutes. 100 ? of the obtained supernatant was added with 30 ? of 5×PEG/NaCl (20% PEG(w/v), 15% NaCl (w/v)), followed by dissolving for 5 minutes. The mixture was then left in ice for 30 minutes. The mixture was centrifuged at 10,000 rpm (4° C.) for 20 minutes and the supernatant was discarded. The obtained pellet was suspended in 1 ? of 3% BSA/TBS. After performing centrifugation at 14,000 rpm for 5 minutes, the supernatant was obtained and used for panning. Affinity purification and phage replication were repeated 4 times, followed by eluting phages. Each phage clone was obtained from the proper plate of the eluted phage, followed by ELISA. Those phage clones showing a specific affinity to HRF were separated, followed by sequencing to confirm the peptide sequence. Those phage display peptides showing dominant binding to HRF were selected and listed below:
# That is, each phage plaque was added to 1 ? of the ER2537 culture medium (OD600=0.5˜1) cultured in SB medium, followed by culture in a 37° C. incubator (rpm=250) for 5 hours. 100 ? of each culture solution was added to 900 ? of SB medium, followed by culture for overnight. […]
# Each phage solution separated above was diluted in an equal volume of 6% BSA/PBS, and 50 ? of the diluted solution was added to each well of the plastic well plate coated with HRF or BSA (control), which stood for 2 hours. […] After adding peroxidase substrate solution thereto (100 ? /well), OD405 was measured with an ELISA reader.
# HRF was diluted serially by ⅕ fold each from the concentration of 20 μg/ ? […] The phage 2 solution diluted serially by ⅕ fold each (½, 1/10, 1/50, 1/250, and 1/1250 of the stock solution) was added thereto, followed by ELISA and OD405 was measured.
# [4] = test system: dTBP2 (dTCTP binding peptide 2); test: Affinity of TCTP proteins to immobilized biotinylated dTBP2 (ELISA); conditions: biotinylated dTBP2 0.01-10 μm on streptavidin plate; protein 0.2 μg/ml; ELISA 450/570 nm
# Protocol: To investigate the affinity to dTBP2 of f-TCTP, Δ-dTCTP, and Del-N11dTCTP of the present invention, biotin was conjugated to the COOH-terminus of dTBP2 known to bind to HRF, followed by purification. The purified protein was immobilized in the plastic well coated with streptavidin, to which f-TCTP, Δ-dTCTP, and Del-N11dTCTP were added. Then, the binding strength of each protein was investigated.
# Particularly, 50 ? of the biotinylated dTBTP2 dissolved in a buffer (TBS [25 mM Tris, 150 mM NaCl, pH 7.2], 0.1% BSA, 0.05% Tween-20) at different concentrations of 0.01, 0.1, 1, and 10 μm was added to Reacti-Bind Streptavidin Coated Polystyrene Plates (PIERCE), followed by reaction at room temperature for 2 hours. The plate was washed with a washing buffer three times. Each of f-TCTP, Δ-dTCTP, and Del-N11dTCTP was dissolved in TBS at the concentration of 0.2 μg/ ? . 60 ? of the mixture was added to each well of the plate, followed by reaction for 1 hour. The plate was washed with a washing buffer three times. 100 ? of anti-HRF rabbit antibody (Bio-Rad) diluted in a buffer (1:2000) was added to each well of the plate, which stood at room temperature for 30 minutes. The plate was washed with a washing buffer three times and with TBS once, to which HRP-conjugated anti-rabbit antibody (1:2000) was added (100 ? /well), which stood at room temperature for 30 minutes. The plate was washed with a washing buffer three times and with TBS once, to which […] (PIERCE), the peroxydase substrate solution, was added (100 ? /well). Color development was measured at 450 nm and 570 nm using an ELISA reader (Bio-Rad), and affinity was determined by the difference.
# [5] = test system: BEAS-2B cells; test: IL-8 secretion by f-TCTP, Δ-dTCTP and Del-N11dTCTP in BEAS-2B cells; assay type: cell-based; conditions: protein at 1, 5 or 10 μg/ml, 24 hours, ELISA
# Protocol: (§1) To investigate the IL-8 and GM-CSF secretory activity of f-TCTP, Δ-dTCTP, and Del-N11dTCTP in BEAS-2B cells, the present inventors compared the activity of f-TCTP, Δ-dTCTP, and Del-N11dTCTP by measuring the secretion of IL-8 in BEAS-2B cells.
# (§2) Particularly, BEAS-2B cells were cultured in a 48-well plate until the confluency reached to 70%. Then, the cells were washed with 1% penicillin-streptomycin/BEBM (Clonetics) twice. Each recombinant protein of the Δ-dTCTP separated in Example 1 of the invention, and the f-TCTP and Del-N11dTCTP constructed by the method described in Korean Patent Application No. 2006-0007663 was added thereto at the concentration of 1 μg/ ? , 5 μg/ ? , or 10 μg/ ? 24 hours later, the supernatant was obtained and the released IL-8 and GM-CSF were quantified by ELISA.
# [6] = test system: BEAS-2B cells; test: GM-CSF secretion by f-TCTP, Δ-dTCTP and Del-N11dTCTP in BEAS-2B cells; assay type: cell-based; conditions: protein at 1, 5 or 10 μg/ml, 24 hours, ELISA
# Protocol: as §1, §2
molecule,measurement,setting,value
AYVYPSM [m1],HRF binding affinity (rank order),[1],"p2, m6>m7>m3>m2>fm5>M1>m4"
"Ac-KPERVKPFMTGAAEQIKHILANFN-NH2 [Helix 3 domain, ID; NO: 22]",inhibition of IL-8 secretion induced by Del-N11dTCTP,[2],inhibited more strongly by FL domain and Helix 2 domain than by Helix 3 domain
"LVTYPLP (IgE-dependent histamine-releasing factor binding peptide) [ph1, ID; NO: 23]","binding of phage clone to HRF (ELISA, OD405)",[3],specifically bind to HRF
WAVYPSM [m2],HRF binding affinity (rank order),[1],"p2, m6>m7>m3>m2>fm5>M1>m4"
"WEFPGWM (IgE-dependent histamine-releasing factor binding peptide3) [ph4, ID; NO: 25]","binding of phage clone to HRF (ELISA, OD405)",[3],specifically bind to HRF
WYAYPSM [m3],HRF binding affinity (rank order),[1],"p2, m6>m7>m3>m2>fm5>M1>m4"
WYVAPSM [m4],HRF binding affinity (rank order),[1],"p2, m6>m7>m3>m2>fm5>M1>m4"
WYVYKSM [m5],HRF binding affinity (rank order),[1],"p2, m6>m7>m3>m2>fm5>M1>m4"
WYVYPAM [m6],HRF binding affinity (rank order),[1],"p2, m6>m7>m3>m2>fm5>M1>m4"
WYVYPSA [m7],HRF binding affinity (rank order),[1],"p2, m6>m7>m3>m2>fm5>M1>m4"
"f-TCTP: full-length TCTP, monomer form (SEQ. ID. NO: 17)",affinity to dTBP2,[4],Del-N11dTCTP had higher dTBP2 affinity than f-TCTP and Δ-dTCTP
same,secretion of IL-8,[5],Del-N11dTCTP was superior to f-TCTP and Δ-dTCTP
same,secretion of GM-CSF,[6],Del-N11dTCTP was superior to f-TCTP and Δ-dTCTP
Δ-dTCTP: dimer form of FL domain-deleted TCTP (protein) MIIYRDLISHDEMFSDIYKIREIADGLCLEVEGKMVSGGITGVDIVMNHHLQETSFTKEAYKKYIKDYMKSIKGKLEEQRPERVKPFMTGAAEQIKHILANFKNYQFFIGENMNPDGMVALLDYREDGVTPYMIFFKDGLEMEKCLEHHHHHH,affinity to dTBP2,[4],low affinity; also recorded: Del-N11dTCTP had higher dTBP2 affinity than f-TCTP and Δ-dTCTP
same,secretion of IL-8,[5],Del-N11dTCTP was superior to f-TCTP and Δ-dTCTP
same,secretion of IL-8,[5]; listed as A-dTCTP,could not induce IL-8 secretion
same,secretion of GM-CSF,[6],Del-N11dTCTP was superior to f-TCTP and Δ-dTCTP
